Source: patent publication US20190184364A1, “FRAGRANCE COMPOSITIONS CONTAINING MICROCAPSULES” (INTERNATIONAL FLAVORS & FRAGRANCES INC., priority 2016, published 2019)
Values after ≈ are worked out from the molar mass of the structure shown.

How the values were obtained:
insect bites = conditions: DEET at 100%; cited from earlier work
[1] = cited from earlier work; for δD: Hansen dispersion value; for δH: Hansen h-bonding value; for δP: Hansen polar value
[2] = Water solubility of core solvents; type: physicochemical

| Structure (SMILES) | hours of protection against insect bites (insect bites) | δD [1] | δH [1] | δP [1] | solubility [2] [mg/mL] |
| --- | --- | --- | --- | --- | --- |
| CCN(CC)C(=O)c1cccc(C)c1 [DEET, N,N-Diethyl-meta-toluamide] | up to 12 hours | – | – | – | – |
| CCCCCCCCCCCCCC(=O)OC(C)C [isopropyl myristate] | – | 16 | 2.7 | 2.1 | < 0.0001 |
| CC(=O)OCC(COC(C)=O)OC(C)=O [triacetin] | – | 16.4 | 9.6 | 5.7 | 21.5 (≈ 98.6 mM) |
